{"source": "patent US20240382460A1", "about": "“Compositions and Methods for Preventing or Improving Premature Skin Aging” (NANJING NUTRABUILDING BIO-TECH CO., LTD., priority 2022, published 2024)", "key": {"[1]": {"test_system": "normal human dermal fibroblasts (NHDF)", "assay": "UV-induced mtDNA common deletion (Cdel) in fibroblasts, PCR", "type": "cell-based", "conditions": "for reduction in Cdel incidence compared to the irradiated control group: UV-irradiated NHDF; for Nest PCR - deleted mtDNA, % Irradiated control / Nest PCR - deleted mtDNA, Relative Intensity / PCR on mtDNA (262 bp) long fragment, % Irradiated control / PCR on mtDNA (262 bp) long fragment, Relative Intensity: irradiated conditions UVA 4 J/cm^2", "procedure": "(§1) The normal human dermal fibroblasts (NHDF) were incubated for 16 days, with ultraviolet light exposure three times a day. For the experimental group the cells were treated using medium containing 0.5, 3, 30 μM of ergothioneine.\n(§2) Deletions in mtDNA were quantified using qPCR. The 522 bp fragment represents the amount of mtDNA with deletions, whereas the 262 bp fragment reflects the quantity of intact mtDNA, Relative intensity (AU) is typically used to describe the intensity of the fluorescent signal, and its magnitude is proportional to the number of fragments measured. And cell activity was analyzed using WST-8.\nFIG. 2 depicts the effect of compound ergothioneine on the UV-induced mtDNA common deletion (Cdel) in fibroblasts—migration of PCR products (262 bp fragment=total mtDNA without Cdel; 522 bp fragment=mtDNA with Cdel) on 1.5% agarose gel."}, "[2]": {"test_system": "normal human dermal fibroblasts (NHDF)", "assay": "Cell viability (WST-8) of UVA-irradiated fibroblasts", "type": "cell-based", "conditions": "light or radiation study, irradiated conditions UVA 4 J/cm^2, read-out: Viability (WST-8), % Irradiated control", "procedure": "as §1, §2"}, "[3]": {"conditions": "animals and humans, even at high doses; cited from earlier work"}}, "data": [{"smiles": "C[N+](C)(C)[C@@H](Cc1c[nH]c(=S)[nH]1)C(=O)[O-]", "note": "[Ergothioneine, ergothioneine]", "values": [{"measurement": "reduction in Cdel incidence compared to the irradiated control group", "setting": "[1]; 0.5 μM", "result": 56, "unit": "%"}, {"measurement": "Nest PCR - deleted mtDNA, % Irradiated control", "setting": "[1]; 0.5 μM", "result": 56, "unit": "%"}, {"measurement": "Nest PCR - deleted mtDNA, Relative Intensity", "setting": "[1]; 0.5 μM", "result": 45153, "unit": "AU"}, {"measurement": "PCR on mtDNA (262 bp) long fragment, % Irradiated control", "setting": "[1]; 0.5 μM", "result": 120, "unit": "%"}, {"measurement": "PCR on mtDNA (262 bp) long fragment, Relative Intensity", "setting": "[1]; 0.5 μM", "result": 663197, "unit": "AU"}, {"measurement": "reduction in Cdel incidence compared to the irradiated control group", "setting": "[1]; 3 μM", "result": 67, "unit": "%"}, {"measurement": "Nest PCR - deleted mtDNA, % Irradiated control", "setting": "[1]; 3 μM", "result": 33, "unit": "%"}, {"measurement": "Nest PCR - deleted mtDNA, Relative Intensity", "setting": "[1]; 3 μM", "result": 26636, "unit": "AU"}, {"measurement": "PCR on mtDNA (262 bp) long fragment, % Irradiated control", "setting": "[1]; 3 μM", "result": 110, "unit": "%"}, {"measurement": "PCR on mtDNA (262 bp) long fragment, Relative Intensity", "setting": "[1]; 3 μM", "result": 606349, "unit": "AU"}, {"measurement": "reduction in Cdel incidence compared to the irradiated control group", "setting": "[1]; 30 μM", "result": 75, "unit": "%"}, {"measurement": "Nest PCR - deleted mtDNA, % Irradiated control", "setting": "[1]; 30 μM", "result": 25, "unit": "%"}, {"measurement": "Nest PCR - deleted mtDNA, Relative Intensity", "setting": "[1]; 30 μM", "result": 20645, "unit": "AU"}, {"measurement": "PCR on mtDNA (262 bp) long fragment, % Irradiated control", "setting": "[1]; 30 μM", "result": 118, "unit": "%"}, {"measurement": "PCR on mtDNA (262 bp) long fragment, Relative Intensity", "setting": "[1]; 30 μM", "result": 652512, "unit": "AU"}, {"measurement": "viability at 0.5 µM", "setting": "[2]; 0.5 μM", "result": 100, "unit": "%"}, {"measurement": "viability at 3 µM", "setting": "[2]; 3 μM", "result": 96, "unit": "%"}, {"measurement": "viability at 30 µM", "setting": "[2]; 30 μM", "result": 96, "unit": "%"}, {"measurement": "toxicity or adverse effects associated with administration", "setting": "[3]", "result": "no toxicity or adverse effects"}]}]}
